In patent US8703428B2, “Single-cell label-free assay” (Corning Incorporated, priority 2007, dated 2014):

Biological target: β2-adrenergic receptor (β2AR) (Homo sapiens, UniProt P07550)
Experimental: For kinetic assays, the cells were washed with HBSS (Hanks Balanced Salt Solution with 20 mM HEPES) buffer.

Sequence of β2-adrenergic receptor (β2AR) (P07550 whole entry): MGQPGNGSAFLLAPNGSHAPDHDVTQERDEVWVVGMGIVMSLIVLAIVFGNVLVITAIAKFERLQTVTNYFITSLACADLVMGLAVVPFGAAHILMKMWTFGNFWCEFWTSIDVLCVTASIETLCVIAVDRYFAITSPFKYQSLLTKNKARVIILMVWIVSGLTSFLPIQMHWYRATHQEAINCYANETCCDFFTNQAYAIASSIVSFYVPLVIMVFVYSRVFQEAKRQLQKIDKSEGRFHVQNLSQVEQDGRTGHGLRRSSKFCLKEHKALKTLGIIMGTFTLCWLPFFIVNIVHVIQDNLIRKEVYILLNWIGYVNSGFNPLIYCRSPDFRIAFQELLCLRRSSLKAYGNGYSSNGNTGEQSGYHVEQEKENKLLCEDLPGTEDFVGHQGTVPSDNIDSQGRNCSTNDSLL

`CNC[C@H](O)c1ccc(O)c(O)c1` [epinephrine] was tested, and the “epinephrine-induced DMR signal (phases)” value (A431 cells) was “a small N-DMR, followed by a significant P-DMR event”, the “epinephrine-induced DMR signal, dose dependence” value (A431 cells) was “dose-dependent DMR signal” and the “distribution of DMR signals (P-DMR amplitude, transition time)” value (quiescent A431 cells, about 100% confluency, 2 nM epinephrine, pixel level) was “relatively tight distribution and are relatively homogenous”.
